Results published in patent US20200397751A1, “Modulation of AMPA/kainate Receptors for the Treatment of Hypoglycemia” (priority 2017, published 2020).

Tested on: isolated rodent islets
Assay: Glucagon secretion by isolated rodent islets in culture at varying glucose concentrations, 1 hr PAM treatment, glucagon by ELISA
Assay type: cell-based
Procedure: In an in vitro approach, isolated rodent islets maintained in culture in 96-well plates are treated for 1 hr with PAMs. Simultaneous with addition of PAMs, islets are exposed by media exchange to glucose concentrations ranging from hypoglycemic to hyperglycemic: e.g., 2 mM, 6 mM, 12 mM, 18 mM, etc. At the end of a 1 hour PAM treatment in varying glucose concentrations, glucagon levels in each treatment condition are then measured by ELISA.

[1] = euglycemic and hyperglycemic conditions

**Q.** For CC(CNS(=O)(=O)C(C)C)c1ccc(-c2ccc(C#N)cc2)cc1 (stereo not drawn) [LY404187], which “amount of glucagon released into a culture media by isolated islets” value (“amount” for short) [1] is on record?
**A.** Its value is “not”.

**Q.** What about the “amount” value (hypoglycemic conditions) of the same molecule?
**A.** Its value is “dose-dependently upregulate”.

**Q.** For O=C1c2cccnc2OC[C@@H]2CCCN12 [ORG26576], which “amount” value [1] is on record?
**A.** Its value is “not”.

**Q.** What about the “amount” value (hypoglycemic conditions) of the same molecule?
**A.** The value was “dose-dependently upregulate”.

**Q.** For COc1ccc(C(=O)N2CCCC2=O)cc1 [aniracetam], which “amount” value [1] is on record?
**A.** The value was “not”.

**Q.** And the “amount” value (hypoglycemic conditions)?
**A.** The value was “dose-dependently upregulate”.
